Read-outs that look alike come from different tables or passages of the source.

In one assay the target is full-length human PLD2 (Homo sapiens (Human), UniProt O14939). The experiment in a line: Evaluation of human PLD2 enzyme inhibitory activity (Amplex Red / choline oxidase fluorescence). The format is biochemical. The method, boiled down:
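Enzyme was N-terminal FLAG-tagged full-length human PLD2 (1-933), expressed in Expi293F cells and anti-FLAG purified. Compound (5% DMSO final) was incubated with enzyme (6 nmol/L solution) and 1,2-diheptanoyl-PC (6 mmol/L solution) in HEPES pH 7.5, KCl, EGTA, MgCl2, NP-40, BSA buffer for 60 min at room temperature. Choline was detected with Amplex Red/choline oxidase/HRP.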

A further assay deals with full-length human PLD1 (Homo sapiens (Human), UniProt Q13393). The experiment in a line: Evaluation of human PLD1 enzyme inhibitory activity (Amplex Red / choline oxidase fluorescence). In kind it is biochemical. The gist of the method: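 N-terminally FLAG-tagged full-length human PLD1 (1-1036), expressed in Expi293F and FLAG-purified, incubated with compound (5% DMSO final) and 1,2-diheptanoyl-sn-glycero-3-phosphocholine for 60 min at room temperature in HEPES pH 7.5 buffer. Released choline detected by Amplex Red/choline oxidase/HRP fluorescence.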
Sequence of full-length human PLD1 (Q13393 other isoform, or with tags, fused parts or gaps): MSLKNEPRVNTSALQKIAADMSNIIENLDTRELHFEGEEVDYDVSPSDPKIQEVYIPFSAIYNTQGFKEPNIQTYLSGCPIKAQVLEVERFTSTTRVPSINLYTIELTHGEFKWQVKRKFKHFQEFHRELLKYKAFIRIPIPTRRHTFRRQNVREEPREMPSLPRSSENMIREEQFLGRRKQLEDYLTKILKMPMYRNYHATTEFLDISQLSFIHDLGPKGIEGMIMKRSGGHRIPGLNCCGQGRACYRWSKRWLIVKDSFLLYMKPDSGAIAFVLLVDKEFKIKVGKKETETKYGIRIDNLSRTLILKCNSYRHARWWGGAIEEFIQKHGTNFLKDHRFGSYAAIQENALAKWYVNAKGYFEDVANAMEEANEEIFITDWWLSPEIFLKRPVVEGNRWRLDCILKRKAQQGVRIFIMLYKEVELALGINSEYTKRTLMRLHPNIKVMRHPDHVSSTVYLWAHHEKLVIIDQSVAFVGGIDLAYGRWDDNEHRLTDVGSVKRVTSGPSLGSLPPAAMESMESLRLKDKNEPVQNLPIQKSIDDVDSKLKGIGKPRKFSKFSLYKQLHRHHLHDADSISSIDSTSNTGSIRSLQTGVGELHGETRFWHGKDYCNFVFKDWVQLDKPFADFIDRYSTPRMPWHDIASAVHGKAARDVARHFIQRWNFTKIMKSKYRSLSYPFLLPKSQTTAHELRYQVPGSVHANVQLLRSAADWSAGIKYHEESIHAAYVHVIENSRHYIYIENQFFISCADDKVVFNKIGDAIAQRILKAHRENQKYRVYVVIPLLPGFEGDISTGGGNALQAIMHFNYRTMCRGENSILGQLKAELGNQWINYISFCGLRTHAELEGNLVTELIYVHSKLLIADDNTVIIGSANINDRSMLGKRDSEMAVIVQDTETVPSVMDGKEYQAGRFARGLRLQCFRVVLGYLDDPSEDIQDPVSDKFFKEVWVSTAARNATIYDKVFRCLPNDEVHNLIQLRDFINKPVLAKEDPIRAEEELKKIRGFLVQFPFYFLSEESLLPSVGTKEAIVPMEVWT

Where [1] appears, read: full-length human PLD2 enzyme, read-out: PLD2 IC50.
[2] abbreviates: full-length human PLD1 enzyme, read-out: PLD1 IC50.

Sequence of full-length human PLD2 (O14939 whole entry): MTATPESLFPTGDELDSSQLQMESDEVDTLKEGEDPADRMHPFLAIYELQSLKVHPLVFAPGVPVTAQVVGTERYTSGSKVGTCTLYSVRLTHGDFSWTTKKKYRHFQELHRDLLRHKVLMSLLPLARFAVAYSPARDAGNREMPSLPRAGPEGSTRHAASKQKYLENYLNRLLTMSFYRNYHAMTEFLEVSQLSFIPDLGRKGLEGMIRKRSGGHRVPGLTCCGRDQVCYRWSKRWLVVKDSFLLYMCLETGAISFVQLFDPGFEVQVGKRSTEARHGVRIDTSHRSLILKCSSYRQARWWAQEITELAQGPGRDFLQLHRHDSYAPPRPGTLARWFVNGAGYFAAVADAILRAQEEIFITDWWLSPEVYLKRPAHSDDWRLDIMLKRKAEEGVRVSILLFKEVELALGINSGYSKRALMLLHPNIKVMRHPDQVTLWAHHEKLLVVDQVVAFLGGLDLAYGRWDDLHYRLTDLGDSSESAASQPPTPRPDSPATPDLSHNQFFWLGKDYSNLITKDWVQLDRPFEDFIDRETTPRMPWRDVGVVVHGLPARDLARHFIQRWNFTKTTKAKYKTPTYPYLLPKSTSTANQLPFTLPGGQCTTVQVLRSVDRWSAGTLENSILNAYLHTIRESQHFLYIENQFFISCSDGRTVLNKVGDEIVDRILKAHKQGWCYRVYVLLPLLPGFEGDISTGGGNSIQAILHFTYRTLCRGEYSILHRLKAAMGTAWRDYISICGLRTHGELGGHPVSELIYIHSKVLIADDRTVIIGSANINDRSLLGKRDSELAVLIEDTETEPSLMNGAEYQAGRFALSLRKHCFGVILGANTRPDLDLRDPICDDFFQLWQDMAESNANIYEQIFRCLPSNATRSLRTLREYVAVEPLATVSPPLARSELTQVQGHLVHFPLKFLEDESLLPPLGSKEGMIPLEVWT

With `CNC(=O)C(=O)N[C@@H](C)C[C@]1(C#N)CC[C@@]2(CC1)OC(=O)NN=C2c1cc(OC(F)F)ccc1Br` [Example 2-055], the half-maximal inhibitory concentration (IC50) on full-length human PLD2 (setting [1]) was below 0.01 µM; at full-length human PLD1 (setting [2]) it was 0.011 µM.
Consider `Cc1cc(C(=O)N[C@@H](C)C[C@H]2CC[C@]3(CC2)OC(=O)NN=C3c2cnc(Cl)cc2N2CCOCC2)[nH]n1` [Example 225], for which the IC50 was found to be 0.203 µM at full-length human PLD2 (setting [1]) and 0.513 µM on full-length human PLD1 (setting [2]).
For `CC(C)C(=O)N[C@@H](C)C[C@H]1CC[C@]2(CC1)OC(=O)NN=C2c1ccc(F)cc1Br` [Example 20] the same measures were 3.77 µM and 1.65 µM.
Regarding `C[C@@H](C[C@H]1CC[C@]2(CC1)OC(=O)NN=C2c1ccc(F)cc1Br)NC(=O)C1CC1` [Example 21], the figures for the IC50 at full-length human PLD2 (setting [1]) and at full-length human PLD1 (setting [2]) were 0.346 µM and 0.307 µM, respectively.
With `CSc1ccc(C2=NNC(=O)OC23CCN(C[C@H](C)NC(=O)c2cc(C)n[nH]2)CC3)c(Cl)c1` [Example 127], the results for the IC50 on full-length human PLD2 (setting [1]) and at full-length human PLD1 (setting [2]) were below 0.01 µM and 0.025 µM, respectively.
On the same counts, the results for `CNC(=O)C(=O)N[C@@H](C)C[C@H]1CC[C@]2(CC1)OC(=O)NN=C2c1cccnc1C` [Example 102] are 0.666 µM and 0.288 µM.
On the same counts, the results for `Cc1cc(C(=O)N[C@@H](C)C[C@H]2CC[C@]3(CC2)OC(=O)NN=C3c2cnc(N3C[C@@H]4C[C@H]3CO4)cc2Cl)[nH]n1` [Example 240] are below 0.01 µM and 0.013 µM.
`CNC(=O)C(=O)N[C@@H](C)CN1CCC2(CC1)OC(=O)NN=C2c1cc(C(=O)OC)ccc1Br` [Example 2-033]: the 50% inhibitory concentration (IC50) was below 0.01 µM at full-length human PLD2 (setting [1]) and 0.035 µM at full-length human PLD1 (setting [2]).
For `C[C@@H](C[C@H]1CC[C@]2(CC1)OC(=O)NN=C2c1ccc(F)cc1Br)NC(=O)c1cn(C)nn1` [Example 76] the same measures were 0.017 µM and 0.017 µM.
On the same counts, the results for `Cc1cc(C(=O)N[C@@H](C)C[C@H]2CC[C@]3(CC2)OC(=O)NN=C3c2ccccc2OC(F)(F)F)[nH]n1` [Example 110] are 0.099 µM and 0.083 µM.
For `C[C@@H](C[C@]1(C#N)CC[C@@]2(CC1)OC(=O)NN=C2c1cc(OC(F)F)ccc1Br)NC(=O)c1cn(C)cn1` [Example 2-078] the same measures were below 0.01 µM and below 0.01 µM.
As to `CNC(=O)C(=O)N[C@@H](C)C[C@H]1CC[C@]2(CC1)OC(=O)NN=C2c1cnc(C)cc1Cl` [Example 230, N^1—((S)-1-(cis-5-(4-chloro-6-methylpyridin-3-yl)-2-oxo-1-oxa-3,4-diazaspiro[5.5]undec-4-en-9-yl)propan-2-yl)-N^2-methyloxamide], the IC50 on full-length human PLD2 (setting [1]) was below 0.01 µM; on full-length human PLD1 (setting [2]) it was 0.021 µM.
On the same counts, the results for `Cc1cc(C(=O)N[C@@H](C)C[C@H]2CC[C@]3(CC2)OC(=O)NN=C3c2ccc(F)cc2)[nH]n1` [Example 5] are 0.171 µM and 0.164 µM.
Regarding `C[C@@H](C[C@H]1CC[C@]2(CC1)OC(=O)NN=C2c1ccc(OC(F)(F)F)cc1Br)NC(=O)c1cc(Cl)no1` [Example 81], the IC50 at full-length human PLD2 (setting [1]) was below 0.01 µM; on full-length human PLD1 (setting [2]), 0.012 µM.
On the same counts, the results for `C[C@@H](C[C@H]1CC[C@]2(CC1)OC(=O)NN=C2c1ccc(F)cc1)NC(=O)c1cc2cc(F)ccc2[nH]1` [Example 4] are 0.011 µM and 0.036 µM.
For `Cc1cc(C(=O)N[C@@H](C)CN2CCC3(CC2)OC(=O)NN=C3c2cccc(C(F)(F)F)c2Br)[nH]n1` [Example 2-052] the same measures were below 0.01 µM and 0.021 µM.
On the same counts, the results for `CNC(=O)C(=O)N[C@@H](C)C[C@H]1CC[C@]2(CC1)OC(=O)NN=C2c1ccc(F)cc1I` [Example 139] are below 0.01 µM and below 0.01 µM.
`C[C@@H](C[C@H]1CC[C@]2(CC1)OC(=O)NN=C2c1ccc(S(C)(=O)=O)cc1)NC(=O)c1cc2cc(F)ccc2[nH]1` [Example 8]: the IC50 is 0.01 µM at full-length human PLD2 (setting [1]) and 0.03 µM at full-length human PLD1 (setting [2]).
For `CNC(=O)C(=O)N[C@@H](C)C[C@H]1CC[C@]2(CC1)OC(=O)NN=C2c1cc(C(=O)NC)ccc1Br` [Example 2-035] the same measures were below 0.01 µM and 0.021 µM.
For `C[C@@H](C[C@H]1CC[C@]2(CC1)OC(=O)NN=C2c1ccc(F)cc1Cl)NC(=O)c1cc(Cl)no1` [Example 63] the same measures were below 0.01 µM and below 0.01 µM.
For `CNC(=O)C(=O)N[C@@H](C)C[C@H]1CC[C@]2(CC1)OC(=O)NN=C2c1cccc(Br)c1` [Example 24] the same measures were 0.031 µM and 0.041 µM.
`CNC(=O)C(=O)N[C@@H](C)CN1CC2CC1CC21OC(=O)NN=C1c1ccc(F)cc1Br` (mixture of isomers) [Example 2-005]: the concentration for half-maximal inhibition (IC50) at full-length human PLD2 (setting [1]) was 0.035 µM; at full-length human PLD1 (setting [2]) it was 0.433 µM.
`COc1cc(C)c(C2=NNC(=O)O[C@]23CC[C@@H](C[C@H](C)NC(=O)OCc2ccccc2)CC3)cn1` [Example 262]: the IC50 on full-length human PLD2 (setting [1]) was below 0.01 µM; at full-length human PLD1 (setting [2]), 0.015 µM.
`CNC(=O)C(=O)N[C@@H](C)C[C@H]1CC[C@]2(CC1)OC(=O)NN=C2c1cc(C(=O)N2CCC(F)(F)C2)ccc1Br` [Example 2-056]: the IC50 is below 0.01 µM on full-length human PLD2 (setting [1]) and 0.017 µM at full-length human PLD1 (setting [2]).
For `CNC(=O)C(=O)N[C@@H](C)C[C@H]1CC[C@]2(CC1)OC(=O)NN=C2c1ccc(OCC(C)(C)O)cc1Br` [Example 130], the half-maximal inhibitory concentration (IC50) is below 0.01 µM on full-length human PLD2 (setting [1]) and 0.018 µM on full-length human PLD1 (setting [2]).
As to `Cc1cc(C(=O)N[C@@H](C)C[C@H]2CC[C@]3(CC2)OC(=O)NN=C3c2cc(C#N)ccc2Br)[nH]n1` [Example 272], the IC50 at full-length human PLD2 (setting [1]) is below 0.01 µM; at full-length human PLD1 (setting [2]), 0.015 µM.
For `CNC(=O)C(=O)N[C@@H](C)C[C@H]1CC[C@]2(CC1)OC(=O)NN=C2c1cc(Cl)ccc1I` [Example 2-044] the same measures were below 0.01 µM and below 0.01 µM.
Regarding `[2H]C([2H])([2H])NC(=O)C(=O)N[C@@H](C)C[C@]1(C#N)CC[C@@]2(CC1)OC(=O)NN=C2c1cc(F)ccc1Br` [Example 2-133], the half-maximal inhibitory concentration (IC50) at full-length human PLD2 (column 2 of continuation tables 2-12 to 2-14, read-out: human PLD2 enzyme inhibitory activity IC50) is below 0.01 µM; at full-length human PLD1 (column 1 of continuation tables 2-12 to 2-14, read-out: human PLD1 enzyme inhibitory activity IC50), 0.014 µM.
Turning to `Cc1cc(C(=O)N[C@@H](C)CN2CCC3(CC2)OC(=O)NN=C3c2cc(C#N)ccc2Br)[nH]n1` [Example 301], the IC50 at full-length human PLD2 (setting [1]) was below 0.01 µM; on full-length human PLD1 (setting [2]), 0.03 µM.
On the same counts, the results for `C[C@@H](C[C@H]1CC[C@]2(CC1)OC(=O)NN=C2c1ccc(OC(F)F)cc1Br)NC(=O)c1cc(Cl)n[nH]1` [Example 144] are below 0.01 µM and 0.011 µM.
On the same counts, the results for `[2H]C([2H])([C@H](C)NC(=O)C(=O)NC)N1CCC2(CC1)OC(=O)NN=C2c1ccc(F)cc1Br` [Example 333] are below 0.01 µM and 0.025 µM.
On the same counts, the results for `Cc1cc(C(=O)N[C@@H](C)C[C@H]2CC[C@]3(CC2)OC(=O)NN=C3c2cnc(N3C[C@H]4C[C@@H]3CO4)cc2C)[nH]n1` [Example 249] are below 0.01 µM and 0.025 µM.
Regarding `Cc1cc(C(=O)N[C@@H](C)CN2CCC3(CC2)OC(=O)NN=C3c2ccc(C#N)cc2Br)on1` [Example 2-062], the 50% inhibitory concentration (IC50) on full-length human PLD2 (setting [1]) and on full-length human PLD1 (setting [2]) was 0.025 µM throughout.
For `CNC(=O)C(=O)N[C@@H](C)C[C@H]1CC[C@]2(CC1)OC(=O)NN=C2c1ccc(F)cc1C(F)(F)F` [Example 56], the half-maximal inhibitory concentration (IC50) on full-length human PLD2 (setting [1]) turned out to be 0.017 µM; on full-length human PLD1 (setting [2]), 0.026 µM.
For `COc1cc(C)c(C2=NNC(=O)O[C@]23CC[C@@H](C[C@H](C)NC(=O)C(=O)NC2CC2)CC3)cn1` [Example 220] the same measures were 0.033 µM and 0.042 µM.
In the case of `Cc1cc(C(=O)N[C@@H](C)C[C@H]2CC[C@]3(CC2)OC(=O)NN=C3c2cccnc2)[nH]n1` [Example 16], the IC50 is 0.968 µM at full-length human PLD2 (setting [1]) and 0.926 µM at full-length human PLD1 (setting [2]).
For `CNC(=O)C(=O)N[C@@H](C)C[C@H]1CC[C@]2(CC1)OC(=O)NN=C2c1ccc(F)cc1Cl` [Example 44] the same measures were below 0.01 µM and 0.018 µM.
For `CNC(=O)C(=O)N[C@@H](C)C[C@H]1CC[C@]2(CC1)OC(=O)NN=C2c1cnc(N2CC3(COC3)C2)cc1C` [Example 191] the same measures were below 0.01 µM and 0.038 µM.
As for `Cc1cc(C(=O)N[C@@H](C)C[C@H]2CC[C@]3(CC2)OC(=O)NN=C3c2cnc(N3CC4CCC(C3)O4)cc2Cl)[nH]n1` [Example 247], the concentration for half-maximal inhibition (IC50) on full-length human PLD2 (setting [1]) is below 0.01 µM; at full-length human PLD1 (setting [2]), 0.014 µM.
Consider `C[C@@H](C[C@H]1CC[C@]2(CC1)OC(=O)NN=C2c1cc(Cl)ccc1Cl)NC(=O)c1cc2ccccn2c1` [Example 323], for which the IC50 on full-length human PLD2 (setting [1]) was below 0.01 µM; at full-length human PLD1 (setting [2]), 0.01 µM.
On the same counts, the results for `Cc1cc(F)ccc1C1=NNC(=O)O[C@]12CC[C@@H](C[C@H](C)NC(=O)N1CCCC1)CC2` [Example 136] are 0.17 µM and 0.155 µM.
On the same counts, the results for `C[C@@H](C[C@H]1CC[C@]2(CC1)OC(=O)NN=C2c1ccc(F)cc1Br)NC(=O)CCS(C)(=O)=O` [Example 43] are 0.184 µM and 0.221 µM.
For `Cc1cc(C(=O)N[C@@H](C)C[C@H]2CC[C@]3(CC2)OC(=O)NN=C3c2cnc(Cl)cc2N2CCC(F)(F)C2)[nH]n1` [Example 223] the same measures were 0.246 µM and 0.396 µM.
For the compound `CC(C)c1cc(F)ccc1C1=NNC(=O)O[C@]12CC[C@@H](C[C@H](C)NC(=O)c1cc(Cl)no1)CC2` [Example 134], the figures for the IC50 at full-length human PLD2 (setting [1]) and at full-length human PLD1 (setting [2]) were 0.03 µM and 0.021 µM, respectively.
On the same counts, the results for `CC(=O)C(=O)N[C@@H](C)C[C@H]1CC[C@]2(CC1)OC(=O)NN=C2c1ccc(F)cc1Br` [Example 30] are 0.153 µM and 0.123 µM.
